Results: ChEMBL document CHEMBL5620355, “Discovery of intracellular self-assembly protein degraders driven by tumor-specific activatable bioorthogonal reaction” (Eur J Med Chem, 2023)
The source made the active and inactive calls. No cut-off for these calls is given here.

Columns and labels:
U-87 MG [1] = assay: Antiproliferative activity against human U87 cells incubated for 48 hrs by MTT assay; type: functional, cell-based, U-87MG ATCC
A549 = assay: Antiproliferative activity against human A549 cells incubated for 48 hrs by MTT assay; type: functional, cell-based; conditions: A549, 48 h
HEK293 [2] = assay: Cytotoxicity against HEK293 cells incubated for 48 hrs by MTT assay; type: toxicity, cell-based; conditions: human, hek293, 48 h
[3] = molecular target: Vascular endothelial growth factor receptor 2 (Homo sapiens) (UniProt P35968); assay: Induction of VEGFR2 degradation in human U87 cells at 10 uM incubated for 48 hrs in presence of 4-azido-N-(2-(2,6-dioxopiperidin-3-yl)-1,3-dioxoisoindolin-4-yl)butanamide by Western blot analysis; type: cell-based
[4] = molecular target: Platelet-derived growth factor receptor beta (Homo sapiens) (UniProt P09619); assay: Induction of PDGFR-beta degradation in human U87 cells at 10 uM incubated for 48 hrs in presence of 4-azido-N-(2-(2,6-dioxopiperidin-3-yl)-1,3-dioxoisoindolin-4-yl)butanamide by Western blot analysis; type: cell-based
U-87 MG [5] = assay: (§1) Induction of apoptosis in human U87 cells assessed as viable cells at 0.1 uM incubated for 48 hrs in presence of (2S,4R)-1-((S)-2-(5-azidopentanamido)-3,3-dimethylbutanoyl)-4-hydroxy-N-(4-(4-methylthiazol-5-yl)benzyl)pyrrolidine-2-carboxamide by Annexin V-FLTC/PI staining based flow cytometry (reference value: 86.74 %); type: functional, U-87MG ATCC; conditions: read-out: Activity
U-87 MG [6] = assay: as §1, with “early apoptotic” for “viable”, “8.95” for “86.74”; type: functional, U-87MG ATCC
U-87 MG [7] = assay: as §1, with “late apoptotic” for “viable”, “3.71” for “86.74”; type: functional, U-87MG ATCC
U-87 MG [8] = assay: as §1, with “necrotic” for “viable”, “0.60” for “86.74”; type: functional, U-87MG ATCC
U-87 MG [9] = assay: as §1, with “late apoptotic” for “viable”, “1” for “0.1”, “3.71” for “86.74”; type: functional, U-87MG ATCC
U-87 MG [10] = assay: as §1, with “5” for “0.1”; type: functional, U-87MG ATCC; conditions: read-out: Activity
U-87 MG [11] = assay: as §1, with “necrotic” for “viable”, “5” for “0.1”, “0.60” for “86.74”; type: functional, U-87MG ATCC
U-87 MG [12] = assay: as §1, with “20” for “0.1”; type: functional, U-87MG ATCC; conditions: read-out: Activity
HEK293 [13] = assay: Cytotoxicity against HEK293 cells at low concentration incubated for 48 hrs in presence of 4-(4-(3-(4-chloro-3-(trifluoromethyl)phenyl)ureido)phenoxy)-N-(prop-2-yn-1-yl)picolinamide by MTT assay; type: toxicity, cell-based; conditions: human, hek293, 48 h
[14] = molecular target: Platelet-derived growth factor receptor beta (Homo sapiens) (UniProt P09619); assay: Induction of PDGFR-beta degradation in human U87 cells at 10 uM incubated for 48 hrs by Western blot analysis; type: cell-based
[15] = molecular target: Serine/threonine-protein kinase B-raf (Homo sapiens) (UniProt P15056); assay: Induction of BRAF degradation in human U87 cells at 10 uM incubated for 48 hrs by Western blot analysis; type: cell-based
U-87 MG [16] = assay: Induction of apoptosis in human U87 cells assessed as late apoptotic cells at 0.1 uM incubated for 48 hrs in presence of 4-(4-(3-(4-chloro-3-(trifluoromethyl)phenyl)ureido)phenoxy)-N-(prop-2-yn-1-yl)picolinamide by Annexin V-FLTC/PI staining based flow cytometry (reference value: 3.71 %); type: functional, U-87MG ATCC
U-87 MG [17] = assay: Induction of apoptosis in human U87 cells assessed as viable cells at 1 uM incubated for 48 hrs in presence of 4-(4-(3-(4-chloro-3-(trifluoromethyl)phenyl)ureido)phenoxy)-N-(prop-2-yn-1-yl)picolinamide by Annexin V-FLTC/PI staining based flow cytometry (reference value: 86.74 %); type: functional, U-87MG ATCC; conditions: read-out: Activity
U-87 MG [18] = assay: Induction of apoptosis in human U87 cells assessed as early apoptotic cells at 1 uM incubated for 48 hrs in presence of 4-(4-(3-(4-chloro-3-(trifluoromethyl)phenyl)ureido)phenoxy)-N-(prop-2-yn-1-yl)picolinamide by Annexin V-FLTC/PI staining based flow cytometry (reference value: 8.95 %); type: functional, U-87MG ATCC
U-87 MG [19] = assay: Induction of apoptosis in human U87 cells assessed as necrotic cells at 1 uM incubated for 48 hrs in presence of 4-(4-(3-(4-chloro-3-(trifluoromethyl)phenyl)ureido)phenoxy)-N-(prop-2-yn-1-yl)picolinamide by Annexin V-FLTC/PI staining based flow cytometry (reference value: 0.60 %); type: functional, U-87MG ATCC
U-87 MG [20] = assay: Induction of apoptosis in human U87 cells assessed as viable cells at 5 uM incubated for 48 hrs in presence of 4-(4-(3-(4-chloro-3-(trifluoromethyl)phenyl)ureido)phenoxy)-N-(prop-2-yn-1-yl)picolinamide by Annexin V-FLTC/PI staining based flow cytometry (reference value: 86.74 %); type: functional, U-87MG ATCC; conditions: read-out: Activity
U-87 MG [21] = assay: Induction of apoptosis in human U87 cells assessed as early apoptotic cells at 5 uM incubated for 48 hrs in presence of 4-(4-(3-(4-chloro-3-(trifluoromethyl)phenyl)ureido)phenoxy)-N-(prop-2-yn-1-yl)picolinamide by Annexin V-FLTC/PI staining based flow cytometry (reference value: 8.95 %); type: functional, U-87MG ATCC
U-87 MG [22] = assay: Induction of apoptosis in human U87 cells assessed as necrotic cells at 5 uM incubated for 48 hrs in presence of 4-(4-(3-(4-chloro-3-(trifluoromethyl)phenyl)ureido)phenoxy)-N-(prop-2-yn-1-yl)picolinamide by Annexin V-FLTC/PI staining based flow cytometry (reference value: 0.60 %); type: functional, U-87MG ATCC
U-87 MG [23] = assay: Induction of apoptosis in human U87 cells assessed as late apoptotic cells at 10 uM incubated for 48 hrs in presence of 4-(4-(3-(4-chloro-3-(trifluoromethyl)phenyl)ureido)phenoxy)-N-(prop-2-yn-1-yl)picolinamide by Annexin V-FLTC/PI staining based flow cytometry (reference value: 3.71 %); type: functional, U-87MG ATCC
U-87 MG [24] = assay: Induction of apoptosis in human U87 cells assessed as viable cells at 20 uM incubated for 48 hrs in presence of 4-(4-(3-(4-chloro-3-(trifluoromethyl)phenyl)ureido)phenoxy)-N-(prop-2-yn-1-yl)picolinamide by Annexin V-FLTC/PI staining based flow cytometry (reference value: 86.74 %); type: functional, U-87MG ATCC; conditions: read-out: Activity
U-87 MG [25] = assay: Induction of apoptosis in human U87 cells assessed as early apoptotic cells at 20 uM incubated for 48 hrs in presence of 4-(4-(3-(4-chloro-3-(trifluoromethyl)phenyl)ureido)phenoxy)-N-(prop-2-yn-1-yl)picolinamide by Annexin V-FLTC/PI staining based flow cytometry (reference value: 8.95 %); type: functional, U-87MG ATCC
U-87 MG [26] = assay: Induction of apoptosis in human U87 cells assessed as necrotic cells at 20 uM incubated for 48 hrs in presence of 4-(4-(3-(4-chloro-3-(trifluoromethyl)phenyl)ureido)phenoxy)-N-(prop-2-yn-1-yl)picolinamide by Annexin V-FLTC/PI staining based flow cytometry (reference value: 0.60 %); type: functional, U-87MG ATCC

Platelet-derived growth factor receptor beta (Homo sapiens), sequence (P09619 whole entry): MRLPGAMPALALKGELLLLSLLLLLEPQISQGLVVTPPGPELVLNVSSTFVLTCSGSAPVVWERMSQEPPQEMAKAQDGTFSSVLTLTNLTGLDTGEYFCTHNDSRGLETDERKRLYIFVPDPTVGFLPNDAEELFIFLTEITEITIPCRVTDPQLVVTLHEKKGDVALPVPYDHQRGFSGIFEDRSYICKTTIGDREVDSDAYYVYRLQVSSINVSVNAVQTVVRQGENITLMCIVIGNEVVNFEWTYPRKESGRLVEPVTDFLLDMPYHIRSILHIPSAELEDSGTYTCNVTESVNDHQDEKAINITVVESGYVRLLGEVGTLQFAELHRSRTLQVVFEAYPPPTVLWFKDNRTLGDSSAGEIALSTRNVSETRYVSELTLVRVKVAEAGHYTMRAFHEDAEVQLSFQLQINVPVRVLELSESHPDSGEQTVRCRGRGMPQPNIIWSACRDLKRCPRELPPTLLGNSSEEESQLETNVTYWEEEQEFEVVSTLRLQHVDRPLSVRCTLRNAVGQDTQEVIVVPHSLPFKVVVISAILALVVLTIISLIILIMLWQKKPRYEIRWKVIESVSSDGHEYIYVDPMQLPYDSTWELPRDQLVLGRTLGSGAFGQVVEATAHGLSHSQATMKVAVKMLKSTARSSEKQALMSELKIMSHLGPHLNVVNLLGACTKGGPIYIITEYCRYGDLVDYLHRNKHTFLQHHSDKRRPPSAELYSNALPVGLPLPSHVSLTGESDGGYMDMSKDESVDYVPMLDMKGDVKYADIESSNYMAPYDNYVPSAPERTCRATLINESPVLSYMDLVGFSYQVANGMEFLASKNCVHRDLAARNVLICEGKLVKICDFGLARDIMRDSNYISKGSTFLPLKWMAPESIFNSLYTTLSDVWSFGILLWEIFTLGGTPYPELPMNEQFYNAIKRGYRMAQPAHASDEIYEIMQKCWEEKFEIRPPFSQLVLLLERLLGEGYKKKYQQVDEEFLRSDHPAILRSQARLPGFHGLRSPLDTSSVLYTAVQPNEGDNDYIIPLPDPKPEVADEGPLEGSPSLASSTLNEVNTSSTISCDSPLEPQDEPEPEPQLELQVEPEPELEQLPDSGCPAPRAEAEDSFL
Vascular endothelial growth factor receptor 2 (Homo sapiens), sequence (P35968 whole entry): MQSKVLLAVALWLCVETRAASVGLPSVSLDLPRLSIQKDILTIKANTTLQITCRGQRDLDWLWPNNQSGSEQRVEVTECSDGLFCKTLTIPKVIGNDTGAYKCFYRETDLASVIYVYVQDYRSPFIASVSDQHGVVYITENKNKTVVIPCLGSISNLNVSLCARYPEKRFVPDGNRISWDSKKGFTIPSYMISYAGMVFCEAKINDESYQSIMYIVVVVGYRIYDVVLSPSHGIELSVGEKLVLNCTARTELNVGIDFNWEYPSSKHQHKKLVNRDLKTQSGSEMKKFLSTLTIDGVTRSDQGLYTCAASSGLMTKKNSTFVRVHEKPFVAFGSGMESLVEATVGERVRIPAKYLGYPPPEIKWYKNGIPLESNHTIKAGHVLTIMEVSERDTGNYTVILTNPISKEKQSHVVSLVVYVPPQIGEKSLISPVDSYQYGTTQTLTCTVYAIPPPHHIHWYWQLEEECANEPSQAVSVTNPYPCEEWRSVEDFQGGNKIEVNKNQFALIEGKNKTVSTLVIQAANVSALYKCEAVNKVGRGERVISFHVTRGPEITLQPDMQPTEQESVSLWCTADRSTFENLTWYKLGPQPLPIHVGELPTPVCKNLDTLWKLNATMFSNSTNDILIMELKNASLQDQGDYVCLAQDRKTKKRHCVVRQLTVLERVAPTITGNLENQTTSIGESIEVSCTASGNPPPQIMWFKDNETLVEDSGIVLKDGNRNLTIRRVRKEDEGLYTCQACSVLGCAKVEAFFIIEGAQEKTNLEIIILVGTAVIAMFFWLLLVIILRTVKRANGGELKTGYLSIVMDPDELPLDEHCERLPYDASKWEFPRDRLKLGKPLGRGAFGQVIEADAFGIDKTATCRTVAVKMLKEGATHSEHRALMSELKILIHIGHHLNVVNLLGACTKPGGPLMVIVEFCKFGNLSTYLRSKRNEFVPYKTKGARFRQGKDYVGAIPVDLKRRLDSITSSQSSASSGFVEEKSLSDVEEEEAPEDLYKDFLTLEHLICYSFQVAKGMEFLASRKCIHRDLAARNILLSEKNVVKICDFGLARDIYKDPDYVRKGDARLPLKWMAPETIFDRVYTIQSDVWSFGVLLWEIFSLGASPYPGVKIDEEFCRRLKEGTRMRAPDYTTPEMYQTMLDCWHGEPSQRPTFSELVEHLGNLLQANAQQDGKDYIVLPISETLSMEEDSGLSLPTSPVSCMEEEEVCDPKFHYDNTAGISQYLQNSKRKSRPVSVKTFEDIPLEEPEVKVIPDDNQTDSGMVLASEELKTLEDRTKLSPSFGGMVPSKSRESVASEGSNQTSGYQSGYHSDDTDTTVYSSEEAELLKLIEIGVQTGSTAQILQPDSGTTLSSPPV
Serine/threonine-protein kinase B-raf (Homo sapiens), sequence (P15056 whole entry): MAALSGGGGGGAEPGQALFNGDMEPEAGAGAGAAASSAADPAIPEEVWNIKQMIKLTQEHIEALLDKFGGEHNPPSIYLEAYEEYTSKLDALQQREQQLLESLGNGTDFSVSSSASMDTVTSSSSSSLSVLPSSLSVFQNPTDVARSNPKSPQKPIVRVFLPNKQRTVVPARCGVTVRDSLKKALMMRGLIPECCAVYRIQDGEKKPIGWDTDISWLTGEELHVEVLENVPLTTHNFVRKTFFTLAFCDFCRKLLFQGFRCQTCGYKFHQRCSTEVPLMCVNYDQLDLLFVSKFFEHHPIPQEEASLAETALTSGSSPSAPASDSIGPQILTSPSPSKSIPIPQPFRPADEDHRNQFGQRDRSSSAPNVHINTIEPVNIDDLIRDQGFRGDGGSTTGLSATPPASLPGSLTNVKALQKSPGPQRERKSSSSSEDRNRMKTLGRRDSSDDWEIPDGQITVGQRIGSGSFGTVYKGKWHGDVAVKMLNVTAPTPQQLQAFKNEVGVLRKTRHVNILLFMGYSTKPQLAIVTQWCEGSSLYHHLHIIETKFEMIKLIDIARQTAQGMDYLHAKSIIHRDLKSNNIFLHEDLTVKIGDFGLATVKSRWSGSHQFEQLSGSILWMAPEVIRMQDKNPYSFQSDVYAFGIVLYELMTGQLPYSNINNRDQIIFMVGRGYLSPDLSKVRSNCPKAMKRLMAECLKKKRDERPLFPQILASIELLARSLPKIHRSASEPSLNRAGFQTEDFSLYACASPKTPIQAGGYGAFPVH

C#CCNC(=O)c1cc(Oc2ccc(NC(=O)Nc3ccc(Cl)c(C(F)(F)F)c3)cc2)ccn1
IC50 (U-87 MG [1]): 6.67 µM | IC50 (A549): 2.81 µM | Activity (HEK293 [2]): Non-Toxic | Activity [3]: Active | Activity [4]: Active | viability at 0.1 µM (U-87 MG [5]): 85.3% | Activity (U-87 MG [6]): 10.27% | Activity (U-87 MG [7]): 3.35% | Activity (U-87 MG [8]): 1.02% | Activity (U-87 MG [9]): 5.43% | viability at 5 µM (U-87 MG [10]): 1.48% | Activity (U-87 MG [11]): 25.22% | viability at 20 µM (U-87 MG [12]): 9.88%

[N-]=[N+]=NCCCC(=O)Nc1cccc2c1C(=O)N(C1CCC(=O)NC1=O)C2=O (stereo not given)
IC50 (U-87 MG [1]): > 50 µM | IC50 (A549): > 50 µM | Activity (HEK293 [2]): Non-Toxic | Activity (HEK293 [13]): Non-Toxic | Activity [14]: Active | Activity [15]: Active | Activity (U-87 MG [16]): 3.35% | viability at 1 µM (U-87 MG [17]): 81.6% | Activity (U-87 MG [18]): 11.69% | Activity (U-87 MG [19]): 1.26% | viability at 5 µM (U-87 MG [20]): 1.48% | Activity (U-87 MG [21]): 0.05% | Activity (U-87 MG [22]): 25.22% | Activity (U-87 MG [23]): 72.58% | viability at 20 µM (U-87 MG [24]): 9.88% | Activity (U-87 MG [25]): 4.73% | Activity (U-87 MG [26]): 6.36%
